{
  "source": "patent US8329914B2",
  "about": "“Cyclic benzimidazole derivatives useful as anti-diabetic agents” (Merck Sharp & Dohme Corp, priority 2008, dated 2012)",
  "data": [
    {"target": "recombinant human AMPK complex 1 (containing α1β1γ1) (Homo sapiens, UniProt Q13131+Q9Y478)", "sequence (Q13131 whole entry)": "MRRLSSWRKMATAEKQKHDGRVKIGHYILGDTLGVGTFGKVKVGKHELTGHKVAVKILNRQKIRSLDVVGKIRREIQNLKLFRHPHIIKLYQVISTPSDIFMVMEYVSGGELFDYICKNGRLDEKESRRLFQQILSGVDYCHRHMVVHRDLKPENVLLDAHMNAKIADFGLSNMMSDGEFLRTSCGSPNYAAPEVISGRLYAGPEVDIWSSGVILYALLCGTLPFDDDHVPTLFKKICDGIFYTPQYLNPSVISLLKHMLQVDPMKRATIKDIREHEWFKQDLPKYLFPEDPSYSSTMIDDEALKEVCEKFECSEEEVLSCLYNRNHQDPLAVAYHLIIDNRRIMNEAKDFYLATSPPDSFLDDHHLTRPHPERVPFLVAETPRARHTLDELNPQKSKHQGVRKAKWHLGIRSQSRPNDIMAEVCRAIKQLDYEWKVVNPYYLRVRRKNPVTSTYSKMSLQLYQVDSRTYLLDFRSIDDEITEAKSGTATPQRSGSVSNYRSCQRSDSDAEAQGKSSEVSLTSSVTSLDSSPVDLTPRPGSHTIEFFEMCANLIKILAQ", "sequence (Q9Y478 whole entry)": "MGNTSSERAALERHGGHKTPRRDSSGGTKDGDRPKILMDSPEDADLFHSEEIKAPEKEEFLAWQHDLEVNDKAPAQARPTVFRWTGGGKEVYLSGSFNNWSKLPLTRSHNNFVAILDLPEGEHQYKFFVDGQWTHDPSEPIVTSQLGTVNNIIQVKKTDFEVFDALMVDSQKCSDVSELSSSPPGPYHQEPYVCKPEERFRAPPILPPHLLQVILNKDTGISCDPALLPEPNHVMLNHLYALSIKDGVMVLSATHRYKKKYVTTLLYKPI", "sequence (P54619 whole entry partner)": "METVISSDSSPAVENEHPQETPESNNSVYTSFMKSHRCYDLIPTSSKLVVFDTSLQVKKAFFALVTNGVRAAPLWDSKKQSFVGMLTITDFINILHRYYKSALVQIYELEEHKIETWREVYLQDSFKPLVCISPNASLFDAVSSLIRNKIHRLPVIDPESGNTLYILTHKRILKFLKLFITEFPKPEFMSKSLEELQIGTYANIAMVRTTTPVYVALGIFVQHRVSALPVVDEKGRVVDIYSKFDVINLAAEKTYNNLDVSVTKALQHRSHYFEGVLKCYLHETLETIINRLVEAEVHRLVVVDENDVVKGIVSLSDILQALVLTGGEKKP", "test": "AMPKSAMSF (in vitro AMPK activation assay)", "format": "biochemical", "conditions": "recombinant human AMPK complex 1 (α1β1γ1)", "procedure": "(§1) The recombinant human AMPK complex 1 (containing α1β1γ1) was obtained from baculovirus expression system. Recombinant viruses were generated by cotransfection of AMPK/pBacPak9 clones with Baculogold baculovirus DNA (Pharmingen) in spodoptera frugiperda 21 cells according to the manufacturer's instructions. Each round of virus amplification was performed for 5 days in Grace's medium containing 10% serum. Virus that had been subjected to three rounds of amplification was used for all protein production procedures. To express the AMPK complex, sf21 cells were adapted to serum free medium (SF900 II, Invitrogen) by sequential dilution from serum containing stocks into SF900II medium and maintained in shaker flasks at 90 rpm at 27° C. The recombinant AMPK enzyme complex was produced by triple infection, one recombinant virus for each of the subunits, in sf21 cells under serum free conditions. Cells were infected in log phase, 1×10^6 cells/ml, at a multiplicity of infection of ˜5. Cells were harvested by centrifugation at 10,000×g for 15 minutes after 72 hours of infection with viruses. The insect cell pellet from 2 liters of culture was resuspended in 50 ml lysis buffer (20 mM Tris-HCl, 50 mM NaCl, 50 mM NaF, 30 mM Na PPi, 0.25 M sucrose, 10 mM ZnCl2, 2 mM DTT, 0.4 mg/ml digitonin) and subjected to two cycles of freeze-thaw lysis in a dry-ice ethanol bath. Insoluble material was removed by centrifugation at 10,000×g and the supernatant was fractionated with use of polyethylene glycol (PEG). The protein fraction precipitating between 2.5 and 6% PEG was used for further purification using a Blue-Sepharose step (Zhou et al, J. Clin Invest. 108, 1167-1174, 2001).\n(§2) The total in vitro AMPK activation assay volume is 50 μl in a 96-well plate. The reaction mixture contained 100 μM ATP (0.5 μCi ^33P-ATP per reaction), and 50 μM SAMS (HMRSAMSGLHLVKRR) in a buffer (20 mM HEPES, pH 7.0, 5 mM MgCl2, 0.01% Brij35). The reaction was initiated with addition of the enzyme. After 30-minute incubation at 30° C., the reaction was stopped by addition of 80 μl 1% H3PO4. Aliquots (100 μl) were transferred to 96-well MultiScreen plates (MAPHNOB50; Millipore Corp., Bedford, Mass., USA). The plate was washed three times with 1% H3PO4 followed by detection in a Top-count. The counts per minute from the basal activity (the reaction without activator) was subtracted from each well and the data were expressed as % maximum AMP activation followed by EC50 calculation.", "units": {"EC50": "nM"}, "values": [
      {"smiles": "O=P(O)(O)CSc1nc2cc(C#Cc3ccc(F)cc3F)c(Cl)cc2[nH]1", "note": "[Example 8]", "EC50": 184},
      {"smiles": "O=P(O)(O)CSc1nc2cc(-c3ccc(-c4cccnc4)cc3)c(Cl)cc2[nH]1", "note": "[Example 22, (5-chloro-6-(4-(pyridin-3-yl)phenyl)-1H-benzo[d]imidazol-2-ylthio)methyl-phosphonic acid]", "EC50": 82},
      {"smiles": "O=P(O)(O)CSc1nc2cc(-c3ccc4[nH]ccc4c3)c(Cl)cc2[nH]1", "note": "[Example 27]", "EC50": 233},
      {"smiles": "Cn1ccc2cc(-c3cc4nc(SCP(=O)(O)O)[nH]c4cc3Cl)ccc21", "note": "[Example 28]", "EC50": 58},
      {"smiles": "O=P(O)(O)CSc1nc2cc(-c3ccc(-c4ccccc4)cc3)c(Cl)cc2[nH]1", "note": "[Example 29]", "EC50": 137}
    ]},
    {"target": "recombinant human AMPK complex 1 (containing α1β1γ1) (Homo sapiens, UniProt Q13131+Q9Y478)", "test": "AMPKSAMSF (in vitro AMPK activation assay)", "format": "biochemical", "conditions": "recombinant human AMPK complex 1 (α1β1γ1); basal activity subtracted; read-out: % Maximum AMP Activation of human AMPK Complex 1", "procedure": "as §1, §2", "units": {"Emax": "%"}, "values": [
      {"smiles": "O=P(O)(O)CSc1nc2cc(Cl)c(C#Cc3ccccc3)cc2[nH]1", "note": "[Example 1, (5-Chloro-6-phenylethynyl-1H-benzoimidazol-2-ylsulfanylmethyl)-phosphonic acid]", "Emax": "> 60"},
      {"smiles": "O=P(O)(O)CSc1nc2cc(C#Cc3ccc(F)cc3)c(Cl)cc2[nH]1", "note": "[Example 2]", "Emax": "> 60"},
      {"smiles": "O=P(O)(O)CSc1nc2cc(C#Cc3ccc(C(F)(F)F)cc3)c(Cl)cc2[nH]1", "note": "[Example 3]", "Emax": "> 60"},
      {"smiles": "O=P(O)(O)CSc1nc2cc(C#Cc3cccc(F)c3)c(Cl)cc2[nH]1", "note": "[Example 4]", "Emax": "> 60"},
      {"smiles": "O=P(O)(O)CSc1nc2cc(C#Cc3ccccn3)c(Cl)cc2[nH]1", "note": "[Example 5]", "Emax": "> 60"},
      {"smiles": "O=P(O)(O)CSc1nc2cc(C#Cc3ccccc3F)c(Cl)cc2[nH]1", "note": "[Example 6]", "Emax": "> 60"},
      {"smiles": "O=P(O)(O)CSc1nc2cc(C#Cc3ccc(CO)cc3)c(Cl)cc2[nH]1", "note": "[Example 7]", "Emax": "> 60"},
      {"smiles": "O=P(O)(O)CSc1nc2cc(C#Cc3ccccc3O)c(Cl)cc2[nH]1", "note": "[Example 9]", "Emax": "> 60"},
      {"smiles": "O=P(O)(O)CSc1nc2cc(C#Cc3cccnc3)c(Cl)cc2[nH]1", "note": "[Example 10]", "Emax": "> 60"},
      {"smiles": "O=P(O)(O)CSc1nc2cc(C#Cc3ccc(Cl)cc3)c(Cl)cc2[nH]1", "note": "[Example 11]", "Emax": "> 60"},
      {"smiles": "Cc1cc(-c2cc3nc(SCP(=O)(O)O)[nH]c3cc2Cl)ccc1Cl", "note": "[Example 12, [6-Chloro-5-(4-chloro-3-methyl-phenyl)-1H-benzoimidazol-2ylsulfanylmethyl]-phosphonic acid]", "Emax": "> 60"},
      {"smiles": "CCOP(=O)(CSc1nc2cc(-c3ccc(Br)cc3)c(Cl)cc2[nH]1)OCC", "note": "[Example 13]", "Emax": "> 60"},
      {"smiles": "CN(C)C(=O)c1ccc(-c2cc3nc(SCP(=O)(O)O)[nH]c3cc2Cl)cc1", "note": "[Example 14, [6-Chloro-5-(4-dimethylcarbamoyl-phenyl)-1H-benzoimidazol-2-ylsulfanylmethyl]-phosphonic acid]", "Emax": "> 60"},
      {"smiles": "O=P(O)(O)CSc1nc2cc(-c3ccc(Cl)c(F)c3)c(Cl)cc2[nH]1", "note": "[Example 15, [6-Chloro-5-(4-chloro-3-fluoro-phenyl)-1H-benzoimidazol-2-ylsulfanylmethyl]phosphonic acid]", "Emax": "> 60"},
      {"smiles": "O=P(O)(O)CSc1nc2cc(-c3ccc(Cl)c(Cl)c3)c(Cl)cc2[nH]1", "note": "[Example 16, [6-Chloro-5-(3,4-dichloro-phenyl)-1H-benzoimidazol-2-ylsulfanylmethyl]-phosphonic acid]", "Emax": "> 60"},
      {"smiles": "CSc1ccc(-c2cc3nc(SCP(=O)(O)O)[nH]c3cc2Cl)cc1", "note": "[Example 17, [6-Chloro-5-(4-methylsulfanyl-phenyl)-1H-benzoimidazol-2-ylsulfanylmethyl]-phosphonic acid]", "Emax": "> 60"},
      {"smiles": "O=C(NC1CC1)c1cc(-c2cc3nc(SCP(=O)(O)O)[nH]c3cc2Cl)ccc1Cl", "note": "[Example 18, [6-Chloro-5-(4-chloro-3-cyclopropylcarbamoyl-phenyl)-1H-benzoimidazol-2-ylsulfanylmethyl]-phosohonic acid]", "Emax": "> 60"},
      {"smiles": "O=P(O)(O)CSc1nc2cc(-c3ccc(N4CCOCC4)cc3)c(Cl)cc2[nH]1", "note": "[Example 20, (5-chloro-6-(4-morpholinophenyl)-1H-benzo[d]imidazol-2-ylthio)methylphosphonic acid]", "Emax": "> 60"},
      {"smiles": "COc1ccc(-c2ccc(-c3cc4nc(SCP(=O)(O)O)[nH]c4cc3Cl)cc2)cn1", "note": "[Example 21, (5-chloro-6-(4-(6-methoxypyridin-3-yl)phenyl)-1H-benzo[d]imidazol-2-ylthio)methylphosphonic acid]", "Emax": "> 60"},
      {"smiles": "CC(C)Oc1ccc(-c2ccc(-c3cc4nc(SCP(=O)(O)O)[nH]c4cc3Cl)cc2)cc1", "note": "[Example 23, (5-chloro-6-(4′-isopropoxy-biphenyl-4-yl)-1H-benzo[d]imidazol-2-ylthio)methylphosphonic acid]", "Emax": "> 60"},
      {"smiles": "Cc1cncc(-c2ccc(-c3cc4nc(SCP(=O)(O)O)[nH]c4cc3Cl)cc2)c1", "note": "[Example 24, (5-chloro-6-[4-(5-methyl-pyridin-3-yl)-phenyl]-1H-benzo[d]imidazol-2-ylthio)methylphosphonic acid]", "Emax": "> 60"},
      {"smiles": "O=P(O)(O)CCCc1nc2cc(-c3ccc(-c4ccccc4)cc3)c(Cl)cc2[nH]1", "note": "[Example 25, [3-(5-Biphenyl-4-yl-6-chloro-1H-benzoimidazol-2-yl)-propyl]-phosphonic acid]", "Emax": "> 60"},
      {"smiles": "O=P(O)(O)CCc1nc2cc(-c3ccc(-c4ccccc4)cc3)c(Cl)cc2[nH]1", "note": "[Example 26, [2-(Biphenyl-4-yl-6-chloro-1H-benzoimidazol-2-yl)-ethyl]-phosphonic acid]", "Emax": "> 60"},
      {"smiles": "O=P1(CSc2nc3cc(-c4ccc(-c5ccccc5)cc4)c(Cl)cc3[nH]2)OCCC(c2cccc(Cl)c2)O1", "note": "(centres unmarked) [Example 30, 5-Biphenyl-4-yl-6-chloro-2-[4-(3-chloro-phenyl)-2-oxo-2lambda*5*-[1,3,2]-dioxaphosphinan-2-ylmethylsulfanyl]-1H-benzoimidazole]", "Emax": "> 60"},
      {"smiles": "COc1ccc(COP(=O)(O)CSc2nc3cc(-c4ccc(-c5ccccc5)cc4)c(Cl)cc3[nH]2)cc1F", "note": "[Example 31, (5-Biphenyl-4-yl-6-chloro-1H-benzoimidazol-2-ylsulfanylmethyl)-phosphonic acid mono-(3-fluoro-4-methoxy-benzyl)ester]", "Emax": "> 60"},
      {"smiles": "CCC(=O)SCCOP(=O)(O)CSc1nc2cc(-c3ccc(-c4ccccc4)cc3)c(Cl)cc2[nH]1", "note": "[Example 32, Thiopropionic acid S-{2-[(5-biphenyl-4-yl-6-chloro-1H-benzoimidazol-2-ylsulfanylmethyl)-hydroxy-phosphinoyloxy]-ethyl}ester]", "Emax": "> 60"},
      {"smiles": "CCC(=O)SCCOP(=O)(CSc1nc2cc(-c3ccc(-c4ccccc4)cc3)c(Cl)cc2[nH]1)OCCSC(=O)CC", "note": "[Example 33, Thiopropionic acid S-{2-[(5-biphenyl-4-yl-6-chloro-1H-benzoimidazol-2-ylsulfanylmethyl)-(2-propionylsulfanyl-ethoxy)-phosphinoyloxy]-ethyl}ester]", "Emax": "> 60"},
      {"smiles": "O=[P@]1(CSc2nc3cc(-c4ccc(-c5ccccc5)cc4)c(Cl)cc3[nH]2)OCC[C@@H](c2ccncc2)O1", "note": "[Example 34, 5-Biphenyl-4-yl-6-chloro-2-(cis{5[1-yl-(4-pyridyl)]}-1-phosphono-2,6-dioxophosphinan-2-ylmethylsulfanyl)-1H-benzoimidazole]", "Emax": "> 60"},
      {"smiles": "O=[P@@]1(CSc2nc3cc(-c4ccc(-c5ccccc5)cc4)c(Cl)cc3[nH]2)OCC[C@@H](c2ccncc2)O1", "note": "[Example 35, 5-Biphenyl-4-yl-6-chloro-2-(trans{5[1-yl-(4-pyridyl)]}-1-phosphono-2,6-dioxophosphinan-2-ylmethylsulfanyl)-1H-benzoimidazole]", "Emax": "> 60"},
      {"smiles": "CC(C)(C)C(=O)OCOP(=O)(CSc1nc2cc(-c3ccc(-c4ccccc4)cc3)c(Cl)cc2n1COC(=O)C(C)(C)C)OCOC(=O)C(C)(C)C", "note": "[Example 36, 2,2-Dimethyl-propionic acid[5-biphenyl-4-yl-6-chloro-1-(2,2-dimethylpropionyl-oxymethyl)-1H-benzoimidazol-2-ylsulfanylmethyl]-(2,2-dimethyl-propionyl-oxymethoxy)-phosohinoyloxymethyl ester]", "Emax": "> 60"}
    ]},
    {"tested_on": "not given", "test": "not given", "conditions": "not given", "units": {"melting point": "°C"}, "values": [
      {"smiles": "O=P(O)(O)CSc1nc2cc(Cl)c(C#Cc3ccccc3)cc2[nH]1", "note": "[Example 1, (5-Chloro-6-phenylethynyl-1H-benzoimidazol-2-ylsulfanylmethyl)-phosphonic acid]", "melting point": "210 to 215"},
      {"smiles": "CC(C)(C)C(=O)OCOP(=O)(CSc1nc2cc(-c3ccc(-c4ccccc4)cc3)c(Cl)cc2n1COC(=O)C(C)(C)C)OCOC(=O)C(C)(C)C", "note": "[Example 36, 2,2-Dimethyl-propionic acid[5-biphenyl-4-yl-6-chloro-1-(2,2-dimethylpropionyl-oxymethyl)-1H-benzoimidazol-2-ylsulfanylmethyl]-(2,2-dimethyl-propionyl-oxymethoxy)-phosohinoyloxymethyl ester]", "melting point": "210 to 215"}
    ]},
    {"tested_on": "ob/ob and db/db mice", "test": "not given", "conditions": "following 8 weeks of administration; cited from earlier work", "units": {"blood glucose reduction": "%"}, "values": [
      {"smiles": "NC(=O)c1ncn([C@@H]2O[C@H](CO)[C@@H](O)[C@H]2O)c1N", "note": "[AICAR]", "blood glucose reduction": 35}
    ]}
  ]
}
